Measurements reported in publication doi:10.1101/2024.12.01.626272v1 (biorxiv, 2024).

Target: T1, olaAHR2a (Oryzias latipes, UniProt A0A2I4U6J3)
T1 sequence (A0A2I4U6J3 1-904): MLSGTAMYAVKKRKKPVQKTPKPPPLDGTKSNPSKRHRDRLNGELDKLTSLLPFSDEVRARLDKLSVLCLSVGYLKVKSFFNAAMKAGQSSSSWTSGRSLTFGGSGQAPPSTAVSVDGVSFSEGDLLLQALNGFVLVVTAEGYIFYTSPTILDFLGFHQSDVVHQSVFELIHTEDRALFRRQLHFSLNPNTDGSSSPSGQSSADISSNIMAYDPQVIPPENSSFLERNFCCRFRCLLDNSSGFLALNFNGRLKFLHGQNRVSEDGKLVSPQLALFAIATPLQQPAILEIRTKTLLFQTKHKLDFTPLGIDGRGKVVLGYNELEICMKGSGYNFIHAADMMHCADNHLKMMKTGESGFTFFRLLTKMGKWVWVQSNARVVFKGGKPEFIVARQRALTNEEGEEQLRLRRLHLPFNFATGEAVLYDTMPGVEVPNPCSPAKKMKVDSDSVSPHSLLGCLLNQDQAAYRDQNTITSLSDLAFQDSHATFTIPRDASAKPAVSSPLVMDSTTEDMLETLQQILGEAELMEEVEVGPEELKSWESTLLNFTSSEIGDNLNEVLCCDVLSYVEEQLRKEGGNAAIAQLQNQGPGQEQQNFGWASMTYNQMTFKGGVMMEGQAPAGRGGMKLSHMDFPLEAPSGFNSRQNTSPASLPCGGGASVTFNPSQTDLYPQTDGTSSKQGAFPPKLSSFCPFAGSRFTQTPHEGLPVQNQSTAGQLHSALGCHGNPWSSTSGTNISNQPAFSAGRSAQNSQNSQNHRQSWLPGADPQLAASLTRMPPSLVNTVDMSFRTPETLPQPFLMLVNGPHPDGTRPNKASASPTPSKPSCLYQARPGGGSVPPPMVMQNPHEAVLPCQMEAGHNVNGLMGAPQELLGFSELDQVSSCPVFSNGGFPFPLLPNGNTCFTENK
Assay: luciferase reporter transactivation
Type: cell-based

EC50: 19.4 ± 1.98 nM
Structure (SMILES): O=c1cc(-c2ccccc2)oc2ccc3ccccc3c12 [BNF]
